Consider 20 compounds from US20260217706A1, “HETEROCYCLIC COMPOUNDS, PREPARATION METHOD THEREFOR AND USE THEREOF” (GUANGZHOU YUFAN NANTU BIOTECHNOLOGIES CO., LTD, priority 2023, published 2026).

One assay deals with CBL-B protein (Homo sapiens, UniProt Q13191). Briefly: CBL-B binding experiment (Streptavidin-Tb cryptate / Ligand L1 displacement). The following applies: 8 nM CBL-B protein, 25° C., 60 minutes; Ki=Relative IC50/2. In short, it runs like this:
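Compounds in a 10-point DMSO series met 8 nM CBL-B protein in HEPES pH 7.5/NaCl/Triton/TCEP/BSA buffer at 25° C. for 60 min. A further 60 min at room temperature preceded the luminescence read, normalised to no-protein and DMSO wells. Ki was taken as relative IC50 divided by 2.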

The subject of assay [1] is anti-CD3 activated human PBMCs. Briefly: Effect of compounds on the level of IL-2 secretion by anti-CD3 activated human PBMCs (IL-2 ELISA). The following applies: compound concentration at which fold change in IL-2 = 5; hPBMCs, CD3 antibody 2 μg/mL, 48 h, compound from 3 μM. It counts as cell-based. As to the method:
2. Inoculate the resuspended cells into a 96-well cell culture plate at 200 ul/well of cell suspension, and incubate in a 37° C. cell incubator for 1 h;
3. Adjust the compound concentration with DMSO, starting at a final concentration of 3 μM, and perform a 3-fold dilution sequentially for 10 concentration gradients, with an additional DMSO control well set up; and
4. Adjust the CD3 antibody to an appropriate concentration to achieve a final concentration of 2 μg/mL, mix thoroughly, and incubate in a 37° C. cell incubator for 48h.
5. After 48 h, centrifuge at 1500 rpm for 5 min to collect the supernatant of the culture medium for the human IL-2 ELISA test.
The OD values obtained from the ELISA test are converted into the fold change (FC) in IL-2 concentration. […] The EC50 is calculated using GraphPad Prism. When the fold change=5, the corresponding compound concentration is CFC=5 (in nM).

A value given as a limit tells only on which side of the number the result lay.

Sequence of CBL-B protein (Q13191 whole entry): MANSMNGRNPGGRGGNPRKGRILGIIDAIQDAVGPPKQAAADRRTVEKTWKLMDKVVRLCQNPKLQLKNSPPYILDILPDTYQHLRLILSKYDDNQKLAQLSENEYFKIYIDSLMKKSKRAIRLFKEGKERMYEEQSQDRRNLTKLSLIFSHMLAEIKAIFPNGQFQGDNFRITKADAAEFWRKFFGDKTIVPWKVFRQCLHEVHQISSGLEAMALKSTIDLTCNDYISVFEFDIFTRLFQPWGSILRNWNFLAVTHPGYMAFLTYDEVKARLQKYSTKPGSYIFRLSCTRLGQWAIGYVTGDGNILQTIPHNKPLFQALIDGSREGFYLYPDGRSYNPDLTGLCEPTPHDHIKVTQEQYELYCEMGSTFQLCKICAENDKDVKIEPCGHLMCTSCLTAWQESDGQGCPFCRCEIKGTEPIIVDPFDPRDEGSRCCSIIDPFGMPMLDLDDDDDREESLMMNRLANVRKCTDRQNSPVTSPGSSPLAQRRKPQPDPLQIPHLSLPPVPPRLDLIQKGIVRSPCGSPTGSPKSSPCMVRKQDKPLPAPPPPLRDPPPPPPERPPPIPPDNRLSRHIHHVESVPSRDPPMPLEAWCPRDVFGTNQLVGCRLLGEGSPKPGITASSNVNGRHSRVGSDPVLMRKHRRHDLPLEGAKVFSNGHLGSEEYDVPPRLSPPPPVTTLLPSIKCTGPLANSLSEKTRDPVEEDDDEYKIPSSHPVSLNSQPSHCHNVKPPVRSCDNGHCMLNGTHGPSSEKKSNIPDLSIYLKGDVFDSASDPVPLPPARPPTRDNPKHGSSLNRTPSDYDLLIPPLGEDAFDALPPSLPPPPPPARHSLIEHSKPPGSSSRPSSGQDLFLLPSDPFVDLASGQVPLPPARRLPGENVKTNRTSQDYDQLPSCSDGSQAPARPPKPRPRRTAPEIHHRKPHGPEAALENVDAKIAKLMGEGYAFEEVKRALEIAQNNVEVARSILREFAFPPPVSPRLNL

At CBL-B protein, `CCN(C)Cc1cc2c(C(F)(F)F)cn(-c3cccc(C4(c5nncn5C)CCC4)c3)c(=O)c2[nH]1` [Compound T002, 2-((ethyl(methyl)amino)methyl)-6-(3-(1-(4-methyl-4H-1,2,4-triazol-3-yl)cyclobutyl)phenyl)-4-(trifluoromethyl)-1,6-dihydro-7H-pyrrolo[2,3-c]pyridin-7-one] had a Ki of less than 50 nM. Moreover, the “IL-2 CFC=5/nM” value in assay [1] is less than 500 nM.

Consider `CCN(CC)Cc1cc2c(C(F)(F)F)cn(-c3cccc(C4(c5nncn5C)CCC4)c3)c(=O)c2[nH]1` [Compound T005, 2-(diethylaminomethyl)-6-[3-[1-(4-methyl-1,2,4-triazol-3-yl)cyclobutyl]phenyl]-4-(trifluoromethyl)-1H-pyrrolo[2,3-c]pyridin-7-one], for which the Ki at CBL-B protein is less than 50 nM. Moreover, the “IL-2 CFC=5/nM” value in assay [1] was less than 500 nM.

For `Cn1cnnc1C1(c2cccc(-n3cc(C(F)(F)F)c4cc(CN5CC6CC6C5)[nH]c4c3=O)c2)CCC1` (stereo not shown) [Compound T007, 2-((3-azabicyclo[3.1.0]hexan-3-yl)methyl)-6-(3-(1-(4-methyl-4H-1,2,4-triazol-3-yl)cyclobutyl)phenyl)-4-(trifluoromethyl)-1,6-dihydro-7H-pyrrolo[2,3-c]pyridin-7-one], the inhibitory constant (Ki) at CBL-B protein was less than 50 nM. In addition, the “IL-2 CFC=5/nM” value in assay [1] is on record as less than 500 nM.

In turn, `Cn1cnnc1C1(c2cccc(-n3cc(C(F)(F)F)c4cc(CNCCC5CC5)[nH]c4c3=O)c2)CCC1` [Compound T008, 2-[(2-cyclopropylethylamino)methyl]-6-[3-[1-(4-methyl-1,2,4-triazol-3-yl)cyclobutyl]phenyl]-4-(trifluoromethyl)-1H-pyrrolo[2,3-c]pyridin-7-one] yielded a Ki on CBL-B protein of less than 50 nM. Moreover, the “IL-2 CFC=5/nM” value in assay [1] is given as less than 500 nM.

Take `Cn1cnnc1C1(c2cccc(-n3cc(C(F)(F)F)c4cc(CNC5(C)CCC5)[nH]c4c3=O)c2)CCC1` [Compound T009, 2-[[(1-methylcyclobutyl)amino]methyl]-6-[3-[1-(4-methyl-1,2,4-triazol-3-yl)cyclobutyl]phenyl]-4-(trifluoromethyl)-1H-pyrrolo[2,3-c]pyridin-7-one]: the Ki at CBL-B protein is less than 50 nM. Besides, in assay [1], the “IL-2 CFC=5/nM” value is on record as less than 500 nM.

`C[C@H]1CCCN(Cc2cc3c(C4CC4)cn(-c4cccc(C5(Cc6nncn6C)CCC5)c4)c(=O)c3[nH]2)C1` [Compound T010, 4-cyclopropyl-2-[[(3S)-3-methyl-1-piperidyl]methyl]-6-[3-[1-[(4-methyl-1,2,4-triazol-3-yl)methyl]cyclobutyl]phenyl]-1H-pyrrolo[2,3-c]pyridin-7-one] gave a Ki on CBL-B protein of less than 50 nM. Further, the “IL-2 CFC=5/nM” value in assay [1] is on record as less than 500 nM.

Compound `C[C@H]1CCCN(Cc2cc3c(C4CC4)cn(-c4cccc([C@@H](c5nncn5C)C5CCC5)c4)c(=O)c3[nH]2)C1` [Compound T013, 6-(3-((S)-cyclobutyl(4-methyl-4H-1,2,4-triazol-3-yl)methyl)phenyl)-4-cyclopropyl-2-(((S)-3-methylpiperidin-1-yl)methyl)-1,6-dihydro-7H-pyrrolo[2,3-c]pyridin-7-one] registered a Ki at CBL-B protein of less than 50 nM. In assay [1], the “IL-2 CFC=5/nM” value was less than 500 nM.

At CBL-B protein, `C[C@H]1CCCN(Cc2cc3c(C(F)(F)F)cn(-c4cccc(C(C)(C)c5nncn5C)c4)c(=O)c3[nH]2)C1` [Compound T017, 6-[3-[1-methyl-1-(4-methyl-1,2,4-triazol-3-yl)ethyl]phenyl]-2-[[(3S)-3-methyl-1-piperidyl]methyl]-4-(trifluoromethyl)-1H-pyrrolo[2,3-c]pyridin-7-one] registered a Ki of less than 50 nM. Also, the “IL-2 CFC=5/nM” value in assay [1] is reported as less than 500 nM.

Turning to `CCN(CC)Cc1cc2c(C(F)(F)F)cn(-c3cccc([C@]4(c5nncn5C)C[C@@H](C)C4)c3)c(=O)c2[nH]1` [Compound T018, 2-((diethylamino)methyl)-6-(3-((1s,3s)-3-methyl-1-(4-methyl-4H-1,2,4-triazol-3-yl)cyclobutyl)phenyl)-4-(trifluoromethyl)-1,6-dihydro-7H-pyrrolo[2,3-c]pyridin-7-one], the Ki on CBL-B protein was less than 50 nM. Also, in assay [1], the “IL-2 CFC=5/nM” value is listed as less than 500 nM.

In turn, `CCN(Cc1cc2c(C(F)(F)F)cn(-c3cccc(C4(c5nncn5C)CCC4)c3)c(=O)c2[nH]1)C(C)C` [Compound T019, 2-[[ethyl(isopropyl)amino]methyl]-6-[3-[1-(4-methyl-1,2,4-triazol-3-yl)cyclobutyl]phenyl]-4-(trifluoromethyl)-1H-pyrrolo[2,3-c]pyridin-7-one] returned a Ki on CBL-B protein of less than 50 nM. For the same compound, the “IL-2 CFC=5/nM” value in assay [1] is listed as less than 500 nM.

For `Cn1cnnc1C1(c2cccc(-n3cc(C(F)(F)F)c4cc(CN5CCC6(CC6)C5)[nH]c4c3=O)c2)CCC1` [Compound T023, 2-(5-azaspiro[2.4]heptan-5-ylmethyl)-6-[3-[1-(4-methyl-1,2,4-triazol-3-yl)cyclobutyl]phenyl]-4-(trifluoromethyl)-1H-pyrrolo[2,3-c]pyridin-7-one], the Ki on CBL-B protein is less than 50 nM. Moreover, the “IL-2 CFC=5/nM” value in assay [1] is less than 500 nM.

`Cn1cnnc1C1(c2cccc(-n3cc(C(F)(F)F)c4cc(CN5CC[C@H]6C[C@H]6C5)[nH]c4c3=O)c2)CCC1` [Compound T024, 2-[[(1R,6R)-3-azabicyclo[4.1.0]heptan-3-yl]methyl]-6-[3-[1-(4-methyl-1,2,4-triazol-3-yl)cyclobutyl]phenyl]-4-(trifluoromethyl)-1H-pyrrolo[2,3-c]pyridin-7-one] came in with a Ki at CBL-B protein of less than 50 nM. In addition, the “IL-2 CFC=5/nM” value in assay [1] was less than 500 nM.

For `Cn1cnnc1C1(c2cccc(-n3cc(C(F)(F)F)c4cc(CN5CC[C@@H]6C[C@@H]6C5)[nH]c4c3=O)c2)CCC1` [Compound T025, 2-[[(1 S,6S)-3-azabicyclo[4.1.0]heptan-3-yl]methyl]-6-[3-[1-(4-methyl-1,2,4-triazol-3-yl)cyclobutyl]phenyl]-4-(trifluoromethyl)-1H-pyrrolo[2,3-c]pyridin-7-one], the Ki on CBL-B protein was less than 50 nM. In addition, the “IL-2 CFC=5/nM” value in assay [1] was less than 500 nM.

In turn, `Cn1cnnc1C1(c2cccc(-n3cc(C(F)(F)F)c4cc(CN5CCC[C@H]6C[C@H]65)[nH]c4c3=O)c2)CCC1` [Compound T026, 2-(((1R,6S)-2-azabicyclo [4.1.0]heptan-2-yl)methyl)-6-(3-(1-(4-methyl-4H-1,2,4-triazol-3-yl)cyclobutyl)phenyl)-4-(trifluoromethyl)-1,6-dihydro-7H-pyrrolo[2,3-c]pyridin-7-one] had a Ki at CBL-B protein of less than 50 nM. Besides, the “IL-2 CFC=5/nM” value in assay [1] was less than 500 nM.

`Cn1cnnc1C1(c2cccc(-n3cc(C(F)(F)F)c4cc(CN5CCC[C@@H]6C[C@@H]65)[nH]c4c3=O)c2)CCC1` [Compound T027, 2-(((1 S,6R)-2-azabicyclo [4.1.0]heptan-2-yl)methyl)-6-(3-(1-(4-methyl-4H-1,2,4-triazol-3-yl)cyclobutyl)phenyl)-4-(trifluoromethyl)-1,6-dihydro-7H-pyrrolo[2,3-c]pyridin-7-one] came in with an inhibition constant (Ki) on CBL-B protein of less than 50 nM. The “IL-2 CFC=5/nM” value in assay [1] is on record as less than 500 nM.

On CBL-B protein, `Cn1cnnc1[C@]1(c2cccc(-n3cc(C(F)(F)F)c4cc(CN5CC6CC6C5)[nH]c4c3=O)c2)C[C@H](C)C1` (stereo partly shown) [Compound T028, 2-((3-azabicyclo[3.1.0]hexan-3-yl)methyl)-6-(3-((1s,3s)-3-methyl-1-(4-methyl-4H-1,2,4-triazol-3-yl)cyclobutyl)phenyl)-4-(trifluoromethyl)-1,6-dihydro-7H-pyrrolo[2,3-c]pyridin-7-one] showed a Ki of less than 50 nM. Also, the “IL-2 CFC=5/nM” value in assay [1] is recorded as less than 500 nM.

In the case of `CCCN(Cc1cc2c(C(F)(F)F)cn(-c3cccc([C@]4(c5nncn5C)C[C@@H](C)C4)c3)c(=O)c2[nH]1)C(C)C` [Compound T029, 2-((isopropyl(propyl)amino)methyl)-6-(3-((1s,3s)-3-methyl-1-(4-methyl-4H-1,2,4-triazol-3-yl)cyclobutyl)phenyl)-4-(trifluoromethyl)-1,6-dihydro-7H-pyrrolo[2,3-c]pyridin-7-one], at CBL-B protein, the Ki is less than 50 nM. For the same compound, the “IL-2 CFC=5/nM” value in assay [1] is less than 500 nM.

In turn, `C[C@H]1CCCN(Cc2cc3c(C4CC4)cn(-c4cccc(C5(c6nncn6C)CC6(CC6)C5)c4)c(=O)c3[nH]2)C1` [Compound T030, 4-cyclopropyl-2-[[(3S)-3-methyl-1-piperidyl]methyl]-6-[3-[5-(4-methyl-1,2,4-triazol-3-yl)spiro[2.3]hexan-5-yl]phenyl]-1H-pyrrolo[2,3-c]pyridin-7-one] yielded a Ki at CBL-B protein of less than 50 nM. Besides, the “IL-2 CFC=5/nM” value in assay [1] is less than 500 nM.

For the compound `C[C@H]1CCCN(Cc2cc3c(C(F)(F)F)cn(-c4cccc(C5(c6nncn6C)CCC5)c4)c(=O)c3[nH]2)C1` [Compound T033, 2-[[(3S)-3-methyl-1-piperidyl]methyl]-6-[3-[1-(4-methyl-1,2,4-triazol-3-yl)cyclobutyl]phenyl]-4-(trifluoromethyl)-1H-pyrrolo[2,3-c]pyridin-7-one], the Ki at CBL-B protein is less than 50 nM. In addition, in assay [1], the “IL-2 CFC=5/nM” value was less than 500 nM.

`Cn1cnnc1C1(c2cccc(-n3cc(C(F)(F)F)c4cc(CNCCC5CCC5)[nH]c4c3=O)c2)CCC1` [Compound T034, 2-(((2-cyclobutylethyl)amino)methyl)-6-(3-(1-(4-methyl-4H-1,2,4-triazol-3-yl)cyclobutyl)phenyl)-4-(trifluoromethyl)-1,6-dihydro-7H-pyrrolo[2,3-c]pyridin-7-one] registered a Ki at CBL-B protein of less than 50 nM. Moreover, the “IL-2 CFC=5/nM” value in assay [1] was less than 500 nM.
